From ChEMBL document CHEMBL1781873, “Synthesis and antibacterial property of pyrrolopyrano quinolinones and pyrroloquinolines” (2011)
Values after ≈ are worked out from the molar mass of the structure shown. Active and inactive are the calls of the source. The rule behind the calls is not given here.

How the values were obtained:
Klebsiella pneumoniae [1] = assay: Antibacterial activity against Klebsiella pneumoniae at 25 ug after 24 hrs by disc diffusion assay; type: functional; details: read-out: IZ
Staphylococcus aureus [2] = assay: Antibacterial activity against Staphylococcus aureus at 10 ug after 24 hrs by disc diffusion assay; type: functional; details: read-out: IZ
Escherichia coli [3] = assay: Antibacterial activity against Escherichia coli after 18 to 20 hrs by broth micro dilution assay; type: functional
Pseudomonas aeruginosa [4] = assay: Antibacterial activity against Pseudomonas aeruginosa at 5 ug after 24 hrs by disc diffusion assay; type: functional; details: read-out: IZ
Pseudomonas aeruginosa [5] = assay: Antibacterial activity against Pseudomonas aeruginosa at 15 ug after 24 hrs by disc diffusion assay; type: functional; details: read-out: IZ
Bacillus subtilis [6] = assay: Antibacterial activity against Bacillus subtilis at 15 ug after 24 hrs by disc diffusion assay; type: functional; details: read-out: IZ
Escherichia coli [7] = assay: Antibacterial activity against Escherichia coli at 15 ug after 24 hrs by disc diffusion assay; type: functional; details: read-out: IZ
Bacillus subtilis [8] = assay: Antibacterial activity against Bacillus subtilis at 20 ug after 24 hrs by disc diffusion assay; type: functional; details: read-out: IZ
Klebsiella pneumoniae [9] = assay: Antibacterial activity against Klebsiella pneumoniae at 5 ug after 24 hrs by disc diffusion assay; type: functional; details: read-out: IZ
Pseudomonas aeruginosa [10] = assay: Antibacterial activity against Pseudomonas aeruginosa at 25 ug after 24 hrs by disc diffusion assay; type: functional; details: read-out: IZ
Klebsiella pneumoniae [11] = assay: Antibacterial activity against Klebsiella pneumoniae at 15 ug after 24 hrs by disc diffusion assay; type: functional; details: read-out: IZ
Salmonella typhi [12] = assay: Antibacterial activity against Salmonella typhi after 18 to 20 hrs by broth micro dilution assay; type: functional, Salmonella enterica subsp. enterica serovar Typhi; details: Salmonella enterica
Escherichia coli [13] = assay: Antibacterial activity against Escherichia coli at 10 ug after 24 hrs by disc diffusion assay; type: functional; details: read-out: IZ
Escherichia coli [14] = assay: Inhibition of Escherichia coli DNA gyrase -mediated DNA relaxation using pBR322 DNA as substrate at […] after 1 hrs by agarose gel electrophoresis
Bacillus subtilis [15] = assay: Antibacterial activity against Bacillus subtilis at 25 ug after 24 hrs by disc diffusion assay; type: functional; details: read-out: IZ
Salmonella typhi [16] = assay: Antibacterial activity against Salmonella typhi at 20 ug after 24 hrs by disc diffusion assay; type: functional, Salmonella enterica subsp. enterica serovar Typhi; details: Salmonella enterica, read-out: IZ
Staphylococcus aureus [17] = assay: Antibacterial activity against Staphylococcus aureus at 20 ug after 24 hrs by disc diffusion assay; type: functional; details: read-out: IZ
Salmonella typhi [18] = assay: Antibacterial activity against Salmonella typhi at 5 ug after 24 hrs by disc diffusion assay; type: functional, Salmonella enterica subsp. enterica serovar Typhi; details: Salmonella enterica, read-out: IZ
Salmonella typhi [19] = assay: Antibacterial activity against Salmonella typhi at 25 ug after 24 hrs by disc diffusion assay; type: functional, Salmonella enterica subsp. enterica serovar Typhi; details: Salmonella enterica, read-out: IZ
Salmonella typhi [20] = assay: Antibacterial activity against Salmonella typhi at 10 ug after 24 hrs by disc diffusion assay; type: functional, Salmonella enterica subsp. enterica serovar Typhi; details: Salmonella enterica, read-out: IZ
Staphylococcus aureus [21] = assay: Antibacterial activity against Staphylococcus aureus at 25 ug after 24 hrs by disc diffusion assay; type: functional; details: read-out: IZ
Salmonella typhi [22] = assay: Antibacterial activity against Salmonella typhi at 15 ug after 24 hrs by disc diffusion assay; type: functional, Salmonella enterica subsp. enterica serovar Typhi; details: Salmonella enterica, read-out: IZ
Escherichia coli [23] = assay: Antibacterial activity against Escherichia coli at 20 ug after 24 hrs by disc diffusion assay; type: functional; details: read-out: IZ
Staphylococcus aureus [24] = assay: Antibacterial activity against Staphylococcus aureus at 15 ug after 24 hrs by disc diffusion assay; type: functional; details: read-out: IZ
Pseudomonas aeruginosa [25] = assay: Antibacterial activity against Pseudomonas aeruginosa at 10 ug after 24 hrs by disc diffusion assay; type: functional; details: read-out: IZ
Escherichia coli [26] = assay: Antibacterial activity against Escherichia coli at 5 ug after 24 hrs by disc diffusion assay; type: functional; details: read-out: IZ
Klebsiella pneumoniae [27] = assay: Antibacterial activity against Klebsiella pneumoniae at 20 ug after 24 hrs by disc diffusion assay; type: functional; details: read-out: IZ
Pseudomonas aeruginosa [28] = assay: Antibacterial activity against Pseudomonas aeruginosa after 18 to 20 hrs by broth micro dilution assay; type: functional
Klebsiella pneumoniae [29] = assay: Antibacterial activity against Klebsiella pneumoniae after 18 to 20 hrs by broth micro dilution assay; type: functional
Staphylococcus aureus [30] = assay: Antibacterial activity against Staphylococcus aureus after 18 to 20 hrs by broth micro dilution assay; type: functional
Pseudomonas aeruginosa [31] = assay: Antibacterial activity against Pseudomonas aeruginosa at 20 ug after 24 hrs by disc diffusion assay; type: functional; details: read-out: IZ
Escherichia coli [32] = assay: Inhibition of Escherichia coli DNA gyrase assessed as inhibition of DNA supercoiling activity using pBR322 DNA as substrate at […] after 3 hrs by agarose gel electrophoresis
Bacillus subtilis [33] = assay: Antibacterial activity against Bacillus subtilis after 18 to 20 hrs by broth micro dilution assay; type: functional
Klebsiella pneumoniae [34] = assay: Antibacterial activity against Klebsiella pneumoniae at 10 ug after 24 hrs by disc diffusion assay; type: functional; details: read-out: IZ
Staphylococcus aureus [35] = assay: Antibacterial activity against Staphylococcus aureus at 5 ug after 24 hrs by disc diffusion assay; type: functional; details: read-out: IZ
Bacillus subtilis [36] = assay: Antibacterial activity against Bacillus subtilis at 10 ug after 24 hrs by disc diffusion assay; type: functional; details: read-out: IZ
Escherichia coli [37] = assay: Antibacterial activity against Escherichia coli at 25 ug after 24 hrs by disc diffusion assay; type: functional; details: read-out: IZ
Escherichia coli [38] = assay: Inhibition of DNA gyrase mRNA expression in Escherichia coli measured up to 24 hrs by RT-PCR; type: functional, organism-based

CCC1[C@@H]2Nc3ccc(Br)cc3C(c3ccccc3)[C@H]2CN1OS(=O)(=O)c1ccc(C)cc1 (some centres undefined)
zone of inhibition at 25 µg/disc (Klebsiella pneumoniae [1]): 26 mm | zone of inhibition at 10 µg/disc (Staphylococcus aureus [2]): 24 mm | MIC50 (Escherichia coli [3]): 0.25 µg/mL (≈ 0.474 µM) | MIC90 (Escherichia coli [3]): 0.5 µg/mL (≈ 0.948 µM) | zone of inhibition at 5 µg/disc (Pseudomonas aeruginosa [4]): 24 mm | zone of inhibition at 15 µg/disc (Pseudomonas aeruginosa [5]): 28 mm | zone of inhibition at 15 µg/disc (Bacillus subtilis [6]): 9 mm | zone of inhibition at 15 µg/disc (Escherichia coli [7]): 16 mm | zone of inhibition at 20 µg/disc (Bacillus subtilis [8]): 10 mm | zone of inhibition at 5 µg/disc (Klebsiella pneumoniae [9]): 10 mm | zone of inhibition at 25 µg/disc (Pseudomonas aeruginosa [10]): 36 mm | zone of inhibition at 15 µg/disc (Klebsiella pneumoniae [11]): 16 mm | MIC50 (Salmonella typhi [12]): 0.25 µg/mL (≈ 0.474 µM) | MIC90 (Salmonella typhi [12]): 0.5 µg/mL (≈ 0.948 µM) | zone of inhibition at 10 µg/disc (Escherichia coli [13]): 14 mm | inhibition (Escherichia coli [14]): Active | zone of inhibition at 25 µg/disc (Bacillus subtilis [15]): 11 mm | zone of inhibition at 20 µg/disc (Salmonella typhi [16]): 22 mm | zone of inhibition at 20 µg/disc (Staphylococcus aureus [17]): 30 mm | zone of inhibition at 5 µg/disc (Salmonella typhi [18]): 10 mm | zone of inhibition at 25 µg/disc (Salmonella typhi [19]): 24 mm | zone of inhibition at 10 µg/disc (Salmonella typhi [20]): 16 mm | zone of inhibition at 25 µg/disc (Staphylococcus aureus [21]): 36 mm | zone of inhibition at 15 µg/disc (Salmonella typhi [22]): 18 mm | zone of inhibition at 20 µg/disc (Escherichia coli [23]): 22 mm | zone of inhibition at 15 µg/disc (Staphylococcus aureus [24]): 26 mm | zone of inhibition at 10 µg/disc (Pseudomonas aeruginosa [25]): 26 mm | zone of inhibition at 5 µg/disc (Escherichia coli [26]): 12 mm | zone of inhibition at 20 µg/disc (Klebsiella pneumoniae [27]): 24 mm | MIC50 (Pseudomonas aeruginosa [28]): 0.25 µg/mL (≈ 0.474 µM) | MIC90 (Pseudomonas aeruginosa [28]): 0.5 µg/mL (≈ 0.948 µM) | MIC50 (Klebsiella pneumoniae [29]): 0.25 µg/mL (≈ 0.474 µM) | MIC90 (Klebsiella pneumoniae [29]): 0.5 µg/mL (≈ 0.948 µM) | MIC50 (Staphylococcus aureus [30]): 0.25 µg/mL (≈ 0.474 µM) | MIC90 (Staphylococcus aureus [30]): 0.5 µg/mL (≈ 0.948 µM) | zone of inhibition at 20 µg/disc (Pseudomonas aeruginosa [31]): 34 mm | DNA gyrase inhibition (active/inactive) (Escherichia coli [32]): Active | MIC50 (Bacillus subtilis [33]): 0.25 µg/mL (≈ 0.474 µM) | MIC90 (Bacillus subtilis [33]): 0.5 µg/mL (≈ 0.948 µM) | zone of inhibition at 10 µg/disc (Klebsiella pneumoniae [34]): 14 mm | zone of inhibition at 5 µg/disc (Staphylococcus aureus [35]): 20 mm | zone of inhibition at 10 µg/disc (Bacillus subtilis [36]): 8 mm | zone of inhibition at 25 µg/disc (Escherichia coli [37]): 23 mm | inhibition of gyrase mRNA expression (active/not active) (Escherichia coli [38]): inactive
